Measured values as given in US11299501B2 (BRISTOL-MYERS SQUIBB COMPANY, priority 2017, dated 2022).

Legend:
Assay type in all cases: cell-based
[1] = target: T1, human TLR7 (Homo sapiens, UniProt Q9NYK1); experiment: TLR7 inhibition reporter assay (HEK-Blue SEAP); settings: cells overexpressing human TLR7, SEAP reporter, stimulated with gardiquimod 7.5 μM, 22 hour incubation
T1 construct: host or cells: HEK-Blue cells
T1 sequence (Q9NYK1 27-1049): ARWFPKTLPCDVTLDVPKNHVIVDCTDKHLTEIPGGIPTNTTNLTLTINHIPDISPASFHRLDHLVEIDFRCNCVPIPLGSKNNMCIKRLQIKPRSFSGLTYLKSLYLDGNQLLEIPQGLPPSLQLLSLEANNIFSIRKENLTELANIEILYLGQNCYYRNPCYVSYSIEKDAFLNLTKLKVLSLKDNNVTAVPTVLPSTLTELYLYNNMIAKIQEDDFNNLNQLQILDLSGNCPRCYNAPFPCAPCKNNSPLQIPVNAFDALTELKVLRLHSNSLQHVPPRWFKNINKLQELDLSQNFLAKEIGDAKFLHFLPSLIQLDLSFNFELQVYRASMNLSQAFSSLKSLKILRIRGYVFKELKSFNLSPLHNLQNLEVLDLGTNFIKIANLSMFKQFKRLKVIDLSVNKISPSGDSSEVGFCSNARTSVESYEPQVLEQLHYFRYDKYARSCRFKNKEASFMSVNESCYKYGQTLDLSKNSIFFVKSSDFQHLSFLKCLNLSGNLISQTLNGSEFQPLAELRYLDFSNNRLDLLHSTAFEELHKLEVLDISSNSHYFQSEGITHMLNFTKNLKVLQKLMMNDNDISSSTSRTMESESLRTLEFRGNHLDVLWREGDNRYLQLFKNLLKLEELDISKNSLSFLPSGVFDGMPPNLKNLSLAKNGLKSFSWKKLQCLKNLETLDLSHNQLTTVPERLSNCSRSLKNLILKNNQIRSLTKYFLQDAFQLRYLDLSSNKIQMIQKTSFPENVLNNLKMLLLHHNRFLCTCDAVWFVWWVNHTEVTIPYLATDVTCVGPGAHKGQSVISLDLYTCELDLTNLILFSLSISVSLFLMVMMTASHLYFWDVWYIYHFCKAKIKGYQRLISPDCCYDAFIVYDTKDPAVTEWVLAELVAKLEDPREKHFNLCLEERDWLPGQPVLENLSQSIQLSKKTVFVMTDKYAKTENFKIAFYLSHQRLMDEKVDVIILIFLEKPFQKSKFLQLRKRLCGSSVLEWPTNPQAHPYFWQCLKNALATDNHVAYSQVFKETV
Method in brief: (§1)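 HEK-Blue cells expressing human TLR7, TLR8 or TLR9 with NF-κB/AP-1-driven SEAP reporter pre-treated 30 min at room temperature with compound (0.05 nM–50 μM), then stimulated with gardiquimod 7.5 μM (TLR7), R848 15.9 μM (TLR8) or ODN2006 5 nM (TLR9). SEAP read after 22 h at 37 °C; % inhibition relative to agonist+DMSO and reference-inhibitor wells.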

[2] = target: T2, human TLR8 (Homo sapiens, UniProt Q9NR97); experiment: TLR8 inhibition reporter assay (HEK-Blue SEAP); settings: cells overexpressing human TLR8, SEAP reporter, stimulated with R848 15.9 μM, 22 hour incubation
T2 construct: host or cells: HEK-Blue cells
T2 sequence (Q9NR97 27-1041): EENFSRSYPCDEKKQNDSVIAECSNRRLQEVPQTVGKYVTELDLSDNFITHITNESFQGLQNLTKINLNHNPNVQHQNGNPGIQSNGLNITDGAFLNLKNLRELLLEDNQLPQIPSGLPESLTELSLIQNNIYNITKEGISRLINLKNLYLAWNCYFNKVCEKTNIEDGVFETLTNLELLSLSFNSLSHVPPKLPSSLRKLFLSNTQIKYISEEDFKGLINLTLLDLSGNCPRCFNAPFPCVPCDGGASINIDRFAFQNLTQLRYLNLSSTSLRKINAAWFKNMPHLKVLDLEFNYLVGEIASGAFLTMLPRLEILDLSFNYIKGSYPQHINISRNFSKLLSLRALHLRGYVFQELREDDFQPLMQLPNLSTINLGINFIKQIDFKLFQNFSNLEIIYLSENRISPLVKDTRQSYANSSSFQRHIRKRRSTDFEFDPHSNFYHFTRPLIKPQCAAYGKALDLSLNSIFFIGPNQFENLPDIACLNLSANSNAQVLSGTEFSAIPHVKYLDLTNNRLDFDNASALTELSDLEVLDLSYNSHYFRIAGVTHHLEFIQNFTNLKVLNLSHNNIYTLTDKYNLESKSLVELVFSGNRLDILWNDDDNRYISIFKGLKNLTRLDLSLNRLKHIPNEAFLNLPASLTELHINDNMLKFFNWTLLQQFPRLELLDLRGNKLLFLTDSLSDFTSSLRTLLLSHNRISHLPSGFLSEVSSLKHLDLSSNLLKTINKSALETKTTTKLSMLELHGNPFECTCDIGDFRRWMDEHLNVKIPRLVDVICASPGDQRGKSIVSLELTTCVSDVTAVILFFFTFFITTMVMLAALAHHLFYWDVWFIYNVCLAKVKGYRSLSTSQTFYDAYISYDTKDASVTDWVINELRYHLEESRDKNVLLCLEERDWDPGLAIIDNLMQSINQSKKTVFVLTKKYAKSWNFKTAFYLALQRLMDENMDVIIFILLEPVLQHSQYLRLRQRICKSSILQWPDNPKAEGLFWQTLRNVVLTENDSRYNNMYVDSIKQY
Method in brief: as §1

[3] = target: T3, human TLR9 (Homo sapiens, UniProt Q9NR96); experiment: TLR9 inhibition reporter assay (HEK-Blue SEAP); settings: cells overexpressing human TLR9, SEAP reporter, stimulated with ODN2006 5 nM, 22 hour incubation
T3 construct: host or cells: HEK-Blue cells
T3 sequence (Q9NR96 26-1032): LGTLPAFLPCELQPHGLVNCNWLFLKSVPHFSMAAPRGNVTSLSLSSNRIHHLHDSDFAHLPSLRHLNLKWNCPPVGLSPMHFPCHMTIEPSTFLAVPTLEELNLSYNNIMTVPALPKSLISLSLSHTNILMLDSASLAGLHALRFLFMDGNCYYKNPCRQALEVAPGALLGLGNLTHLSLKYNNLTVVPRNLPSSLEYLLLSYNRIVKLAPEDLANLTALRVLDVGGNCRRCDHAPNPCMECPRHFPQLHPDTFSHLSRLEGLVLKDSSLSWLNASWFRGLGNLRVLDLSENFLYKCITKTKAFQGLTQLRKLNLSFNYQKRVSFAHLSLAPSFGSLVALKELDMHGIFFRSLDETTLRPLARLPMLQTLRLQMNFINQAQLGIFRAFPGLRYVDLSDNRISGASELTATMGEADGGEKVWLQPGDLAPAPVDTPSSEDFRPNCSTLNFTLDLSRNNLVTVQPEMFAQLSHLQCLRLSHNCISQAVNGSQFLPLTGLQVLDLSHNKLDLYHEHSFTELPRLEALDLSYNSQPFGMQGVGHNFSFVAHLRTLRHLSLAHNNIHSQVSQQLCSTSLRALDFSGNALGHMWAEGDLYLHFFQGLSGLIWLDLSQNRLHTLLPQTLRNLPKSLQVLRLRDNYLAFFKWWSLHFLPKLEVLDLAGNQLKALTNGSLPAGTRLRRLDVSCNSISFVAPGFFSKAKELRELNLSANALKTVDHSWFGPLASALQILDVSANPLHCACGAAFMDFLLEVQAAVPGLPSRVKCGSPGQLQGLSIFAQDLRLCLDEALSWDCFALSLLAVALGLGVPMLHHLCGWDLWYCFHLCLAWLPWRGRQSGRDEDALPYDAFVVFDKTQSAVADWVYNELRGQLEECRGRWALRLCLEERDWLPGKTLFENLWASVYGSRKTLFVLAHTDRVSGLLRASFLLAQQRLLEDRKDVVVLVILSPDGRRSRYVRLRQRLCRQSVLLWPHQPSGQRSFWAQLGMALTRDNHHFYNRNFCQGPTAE
Method in brief: as §1

Structure (SMILES) | IC50 [1] [nM] | IC50 [2] [nM] | IC50 [3] [nM]
Cc1cc(-c2[nH]c3cnc(C4CCN(C)CC4)nc3c2C(C)C)cn(C)c1=O [Example 34, 5-(7-isopropyl-2-(1-methylpiperidin-4-yl)-5H-pyrrolo[3,2-d]pyrimidin-6-yl)-1,3-dimethylpyridin-2(1H)-one] | < 100 | < 100 | 1000 to 50000
Cc1cc(-c2[nH]c3cnc(C4CCNCC4)nc3c2C(C)C)cn(C)c1=O [Example 7, 5-(7-isopropyl-2-(piperidin-4-yl)-5H-pyrrolo[3,2-d]pyrimidin-6-yl)-1,3-dimethylpyridin-2(1H)-one] | < 100 | 100 to 1000 | 1000 to 50000
COc1ccc(-c2[nH]c3cnc(C4CCN(C5CCN(C(C)C)CC5)CC4)nc3c2C(C)C)cc1OC [Example 22, 6-(3,4-dimedioxyphenyl)-7-isopropyl-2-(1′-isopropyl-[1,4′-bipiperidin]-4-yl)-5H-pyrrolo[3,2-d]pyrimidine] | < 100 | < 100 | 100 to 1000
COc1cc(-c2[nH]c3cnc(C4CCN(C5COC5)CC4)nc3c2C(C)C)cn2ncnc12 [Example 14, 6-(7-isopropyl-2-(1-(oxetan-3-yl)piperidin-4-yl)-5H-pyrrolo[3,2-d]pyrimidin-6-yl)-8-methoxy-[1,2,4]triazolo[1,5-a]pyridine] | < 100 | < 100 | 1000 to 50000
Cc1c(-c2[nH]c3cnc(C4CCN(C5COC5)CC4)nc3c2C(C)C)cn2ncnc2c1C [Example 19, 6-(7-isopropyl-2-(1-(oxetan-3-yl)piperidin-4-yl)-5H-pyrrolo[3,2-d]pyrimidin-6-yl)-7,8-dimethyl-[1,2,4]triazolo[1,5-a]pyridine] | < 100 | < 100 | 1000 to 50000
CCc1c(-c2ccc(OC)c(OC)c2)[nH]c2cnc(-c3nnc(CCN(C)C)o3)nc12 [Example 48, 2-(5-(6-(3,4-dimethoxyphenyl)-7-ethyl-5H-pyrrolo[3,2-d]pyrimidin-2-yl)-1,3,4-oxadiazol-2-yl)-N,N-dimethylethan-1-amine] | 1000 to 50000 | 100 to 1000 | 1000 to 50000
CCc1c(-c2ccc(OC)c(OC)c2)[nH]c2cnc(-c3nnc(C[C@@H]4CCCCN4)o3)nc12 [Example 46, (S)-2-(6-(3,4-dimethoxyphenyl)-7-ethyl-5H-pyrrolo[3,2-d]pyrimidin-2-yl)-5-(piperidin-2-ylmethyl)-1,3,4-oxadiazole] | 1000 to 50000 | 100 to 1000 | 1000 to 50000

Continued, values first:

IC50 [1] [nM] | IC50 [2] [nM] | IC50 [3] [nM] | Structure (SMILES)
> 50000 | 1000 to 50000 | > 50000 | CCc1c(-c2ccc(OC)c(OC)c2)[nH]c2cnc(-c3nnc(N)o3)nc12 [Example 53, 5-(6-(3,4-dimethoxyphenyl)-7-ethyl-5H-pyrrolo[3,2-d]pyrimidin-2-yl)-1,3,4-oxadiazol-2-amine]
100 to 1000 | 100 to 1000 | 100 to 1000 | CCc1c(-c2ccc(OC)c(OC)c2)[nH]c2cnc(-c3nnc([C@H]4CCCNC4)o3)nc12 [Example 40, (S)-2-(6-(3,4-dimethoxyphenyl)-7-ethyl-5H-pyrrolo[3,2-d]pyrimidin-2-yl)-5-(piperidin-3-yl)-1,3,4-oxadiazole]
< 100 | < 100 | 1000 to 50000 | COc1cc(-c2[nH]c3cnc(C4CCN(C(=O)CN(C)C)CC4)nc3c2C(C)C)cn2ncnc12 [Example 11, 2-(dirnethylamino)-1-(4-(7-isopropyl-6-(8-methoxy-[1,2,4]triazolo[1,5-a]pyridin-6-yl)-5H-pyrrolo[3,2-d]pyrimidin-2-yl)piperidin-1-yl)ethan-1-one]
1000 to 50000 | 100 to 1000 | 1000 to 50000 | CCc1c(-c2ccc(OC)c(OC)c2)[nH]c2cnc(-c3nnc(CCCN(C)C)o3)nc12 [Example 37, 3-(5-(6-(3,4-dimethoxyphenyl)-7-ethyl-5H-pyrrolo[3,2-d]pyrimidin-2-yl)-1,3,4-oxadiazol-2-yl)-N,N-dimethylpropan-1-amine]
< 100 | < 100 | 1000 to 50000 | Cc1cc(-c2[nH]c3cnc(C4CCN(CC(=O)N(C)C)CC4)nc3c2C(C)C)cn(C)c1=O [Example 32, 2-(4-(6-(1,5-dimethyl-6-oxo-1,6-dihydropyridin-3-yl)-7-isopropyl-5H-pyrrolo[3,2-d]pyrimidin-2-yl)piperidin-1-yl)-N,N-dimethylacetainide]
< 100 | < 100 | 1000 to 50000 | Cc1cc(-c2[nH]c3cnc(C4CCN(C5COC5)CC4)nc3c2C(C)C)cn(C)c1=O [Example 8, 5-(7-isopropyl-2-(1-(oxetan-3-yl)piperidin-4-yl)-5H-pyrrolo[3,2-d]pyrimidin-6-yl)-1,3-dimethylpyridin-2(1H)-one]
< 100 | < 100 | 1000 to 50000 | Cc1cc(-c2[nH]c3cnc(C4CCN(CC(C)(C)O)CC4)nc3c2C(C)C)cn2ncnc12 [Example 20, 1-(4-(7-isopropyl-6-(8-methyl-[1,2,4]triazolo[1,5-a]pyridin-6-yl)-5H-pyrrolo[3,2-d]pyrimidin-2-yl)piperidin-1-yl)-2-methylpropan-2-ol]
